Assay type in all cases: functional
In assay [1] the test system is Staphylococcus aureus. Briefly: Antimicrobial activity against Staphylococcus aureus harboring APH(3'/5'''')-3 enzyme.
For assay [2], the system named is Staphylococcus aureus. Nature of the assay: Antimicrobial activity against Staphylococcus aureus harboring ANT(4')-1 enzyme.
The subject of assay [3] is Staphylococcus aureus. Briefly: Antimicrobial activity against Staphylococcus aureus ATCC 29213.
Assay [4] concerns Staphylococcus aureus. Briefly: Antimicrobial activity against Staphylococcus aureus harboring APH(2'''') and AAC(6') enzymes.
Assay [5] deals with Staphylococcus aureus. Nature of the assay: Ratio of amikacin MIC50 to compound MIC50 for methicillin-resistant Staphylococcus aureus clinical isolate.
Assay [6] has as its system Staphylococcus aureus. Briefly: Ratio of amikacin MIC90 to compound MIC90 for methicillin-resistant Staphylococcus aureus clinical isolate.
The test system of assay [7] is Staphylococcus aureus. Nature of the assay: Antimicrobial activity against methicillin-resistant Staphylococcus aureus clinical isolate.

Values after ≈ are worked out from the molar mass of the structure shown. Some results are limits rather than exact numbers.

Consider `NC[C@@H]1CC[C@@H](N)[C@@H](O[C@H]2[C@H](O[C@@H]3O[C@H](CO)[C@@H](O[C@H]4O[C@@H](CN)CC[C@H]4N)[C@H]3O)[C@@H](O)[C@H](N)C[C@@H]2N)O1`, for which the MIC – broadly, the lowest concentration that inhibits growth of the organism – with Staphylococcus aureus [1] is 32 µg/mL (≈ 58.1 µM); with Staphylococcus aureus [2] it was 0.5 µg/mL (≈ 0.908 µM); in the assay with Staphylococcus aureus [3], 0.5 µg/mL (≈ 0.908 µM); against Staphylococcus aureus [4], more than 64 µg/mL.
Turning to `NCC[C@H](O)C(=O)N[C@@H]1C[C@H](N)[C@@H](O[C@H]2O[C@H](CO)[C@@H](O)[C@H](O)[C@H]2N)[C@H](O[C@@H]2O[C@H](CO)[C@@H](O[C@H]3O[C@@H](CN)[C@@H](O)[C@H](O)[C@H]3N)[C@H]2O)[C@H]1O`, the MIC was 32 µg/mL (≈ 44.6 µM) against Staphylococcus aureus [1], more than 64 µg/mL in the assay with Staphylococcus aureus [2], 2 µg/mL (≈ 2.79 µM) in the assay with Staphylococcus aureus [3] and more than 32 µg/mL with Staphylococcus aureus [4].
Turning to `NCC[C@H](O)C(=O)N[C@@H]1C[C@H](N)[C@@H](O[C@H]2O[C@H](CN)CC[C@H]2N)[C@H](O[C@@H]2O[C@H](CO)[C@@H](O[C@H]3O[C@@H](CN)CC[C@H]3N)[C@H]2O)[C@H]1O`, the MIC was 1 µg/mL (≈ 1.53 µM) in the assay with Staphylococcus aureus [1], 1 µg/mL (≈ 1.53 µM) in the assay with Staphylococcus aureus [2], 0.5 µg/mL (≈ 0.767 µM) against Staphylococcus aureus [3] and 2 µg/mL (≈ 3.07 µM) with Staphylococcus aureus [4]. Further, the Ratio in the assay on Staphylococcus aureus [5] and in the assay with Staphylococcus aureus [6] was more than 64 throughout. In addition, the MIC50 (in general, the lowest concentration that inhibits either 50% of growth or 50% of the strains tested, depending on the study) with Staphylococcus aureus [7] was determined as 0.25 µg/mL (≈ 0.384 µM). Also, the MIC90 – broadly, an inhibitory concentration at the 90% level, which refers to growth in some studies and to a panel of isolates in others – against Staphylococcus aureus [7] was found to be 0.5 µg/mL (≈ 0.767 µM).
As to `NCC[C@H](O)C(=O)N[C@@H]1C[C@H](N)[C@@H](O[C@H]2O[C@H](CO)CC[C@H]2N)[C@H](O[C@@H]2O[C@H](CO)[C@@H](O[C@H]3O[C@@H](CN)CC[C@H]3N)[C@H]2O)[C@H]1O`, the MIC amounted to 8 µg/mL (≈ 12.3 µM) in the assay with Staphylococcus aureus [2], 1 µg/mL (≈ 1.53 µM) with Staphylococcus aureus [3] and 16 µg/mL (≈ 24.5 µM) in the assay with Staphylococcus aureus [4].
Turning to `NC[C@H]1O[C@H](O[C@H]2[C@H](O[C@@H]3O[C@H](CO)[C@@H](O)[C@H]3O)[C@@H](O)[C@H](N)C[C@@H]2N)[C@H](N)[C@@H](O)[C@@H]1O` [RIBOSTAMYCIN], the MIC is more than 64 µg/mL against Staphylococcus aureus [1], more than 64 µg/mL against Staphylococcus aureus [2], 8 µg/mL (≈ 17.6 µM) in the assay on Staphylococcus aureus [3] and more than 64 µg/mL in the assay on Staphylococcus aureus [4].
As for `NCC[C@H](O)C(=O)N[C@@H]1C[C@H](N)[C@@H](O[C@H]2O[C@H](CN)[C@@H](O)[C@H](O)[C@H]2O)[C@H](O)[C@H]1O[C@H]1O[C@H](CO)[C@@H](O)[C@H](N)[C@H]1O` [AMIKACIN], the MIC in the assay on Staphylococcus aureus [1] amounted to 8 µg/mL (≈ 13.7 µM); against Staphylococcus aureus [2], 64 µg/mL (≈ 109 µM); with Staphylococcus aureus [3] it was 4 µg/mL (≈ 6.83 µM); against Staphylococcus aureus [4], 64 µg/mL (≈ 109 µM). This compound also displayed an MIC50 in the assay with Staphylococcus aureus [7] of 32 µg/mL (≈ 54.6 µM). In the assay with Staphylococcus aureus [7], the MIC90 was more than 64 µg/mL.
On to `NC[C@@H]1O[C@H](O[C@H]2[C@@H](O)[C@H](O[C@@H]3[C@@H](O)[C@H](N)C[C@H](N)[C@H]3O[C@H]3O[C@H](CO)[C@@H](O)[C@H](O)[C@H]3N)O[C@@H]2CO)[C@H](N)[C@@H](O)[C@@H]1O` [PAROMOMYCIN], for which the MIC with Staphylococcus aureus [1] is more than 64 µg/mL; in the assay with Staphylococcus aureus [2], more than 64 µg/mL; in the assay on Staphylococcus aureus [3] it was 2 µg/mL (≈ 3.25 µM); in the assay on Staphylococcus aureus [4], more than 64 µg/mL.
`CN[C@@H]1[C@@H](O)[C@@H](O[C@@H]2[C@@H](O)[C@H](O[C@H]3O[C@H]([C@@H](C)NC)CC[C@H]3N)[C@@H](N)C[C@H]2N)OC[C@]1(C)O` [GENTAMICIN C1]: the minimum inhibitory concentration (MIC) in the assay on Staphylococcus aureus [1] was 0.5 µg/mL (≈ 1.05 µM); with Staphylococcus aureus [2] it was 0.5 µg/mL (≈ 1.05 µM); against Staphylococcus aureus [3] it was 0.5 µg/mL (≈ 1.05 µM); against Staphylococcus aureus [4], more than 64 µg/mL. The compound also returned an MIC50 in the assay on Staphylococcus aureus [7] of more than 32 µg/mL. Moreover, the MIC90 in the assay on Staphylococcus aureus [7] is more than 32 µg/mL.
For `NC[C@H]1CC[C@@H](N)[C@@H](O[C@H]2[C@@H](O)[C@H](O[C@@H]3[C@@H](O)[C@H](N)C[C@H](N)[C@H]3O[C@H]3O[C@H](CO)CC[C@H]3N)O[C@@H]2CO)O1`, the MIC against Staphylococcus aureus [2] is 4 µg/mL (≈ 7.25 µM); against Staphylococcus aureus [3], 2 µg/mL (≈ 3.63 µM); against Staphylococcus aureus [4], more than 32 µg/mL.
Take butirosin: the minimum inhibitory concentration (MIC) was more than 32 µg/mL with Staphylococcus aureus [1], more than 32 µg/mL against Staphylococcus aureus [2], 8 µg/mL against Staphylococcus aureus [3] and more than 32 µg/mL in the assay on Staphylococcus aureus [4].
In the case of `NC[C@@H]1O[C@H](O[C@H]2[C@@H](O)[C@H](O[C@@H]3[C@@H](O)[C@H](N)C[C@H](N)[C@H]3O[C@H]3O[C@H](CN)[C@@H](O)[C@H](O)[C@H]3N)O[C@@H]2CO)[C@H](N)[C@@H](O)[C@@H]1O` [FRAMYCETIN], the MIC is more than 64 µg/mL with Staphylococcus aureus [1], more than 64 µg/mL in the assay with Staphylococcus aureus [2], 0.5 µg/mL (≈ 0.813 µM) against Staphylococcus aureus [3] and more than 64 µg/mL against Staphylococcus aureus [4].
